7 compounds from ChEMBL document CHEMBL3603800, “Novel methyl substituted 1-(5,6-dihydro-[1,2,4]triazolo[4,3-a]pyrazin-7(8H)-yl)methanones are P2X7 antagonists” (Bioorg Med Chem Lett, 2015) can be followed below.

Data set [1] in a line: Protein binding in rat brain. The class given is ADME, tissue-based. The note with it: read-out: PB (converted).
Data set [2] in a line: Protein binding in rat plasma. The class given is ADME, cell-free. The note with it: read-out: PPB (converted).
Data set [3] can be described thus: Solubility in pH 7 solution. The class given is physicochemical.
Data set [4] can be described thus: Drug level in plasma of Sprague-Dawley rat at 30 mg/kg, po after 0.5 hrs. The class given is ADME, organism-based.
Data set [5] can be described thus: Apparent permeability from basolateral to apical side in human Caco2 cells. The class given is ADME, cell-based. The note with it: Caco-2. (Passage across Caco-2 layers is used to estimate intestinal permeability.)
Data set [6] in a line: Apparent permeability from apical to basolateral side in human Caco2 cells. The class given is ADME, cell-based. As to conditions: Caco-2.
Data set [7] is described as follows: Protein binding in human plasma. The class given is ADME, cell-free. As to conditions: read-out: PPB (converted).
Data set [8] is described as follows: Drug level in plasma of Sprague-Dawley rat at 30 mg/kg, po after 2 hrs. The class given is ADME, organism-based.
Data set [9] can be described thus: Drug level in brain of Sprague-Dawley rat at 30 mg/kg, po after 2 hrs. The class given is ADME, organism-based. As to conditions: read-out: Drug uptake.
Data set [10] has as its system Rattus norvegicus. Put plainly: Ex-vivo P2X7 receptor occupancy in Sprague-Dawley rat brain assessed as inhibition of [3H]A804598 binding at 30 mg/kg, po after 0.5 hrs by autoradiographic analysis. The class given is functional.
Data set [11] addresses Voltage-gated inwardly rectifying potassium channel KCNH2 (Homo sapiens, UniProt Q12809). The experiment in a line: Displacement of [3H]-astemizole from human ERG channel expressed in HEK293 cells by radioligand competition binding assay. The class given is cell-based. A general note: Displacement assays read how much labelled ligand stays bound in the presence of the test substance.

The subject of data set [12] is Rattus norvegicus. The experiment in a line: Ex-vivo P2X7 receptor occupancy in Sprague-Dawley rat brain assessed as inhibition of [3H]A804598 binding at 30 mg/kg, po after 2 hrs by autoradiographic analysis. The class given is functional.
Data set [13] is described as follows: Drug level in brain of Sprague-Dawley rat at 30 mg/kg, po after 0.5 hrs. The class given is ADME, organism-based. As to conditions: read-out: Drug uptake.
In data set [14] the test system is Rattus norvegicus. The experiment in a line: Ex-vivo P2X7 receptor occupancy in Sprague-Dawley rat brain assessed as inhibition of [3H]A804598 binding at 10 mg/kg, po after 2 hrs by autoradiographic analysis. The class given is functional.
Data set [15] in a line: Drug level in plasma of Sprague-Dawley rat at 10 mg/kg, sc after 2 hrs.
A short description of data set [16]: Drug level in plasma of Sprague-Dawley rat at 10 mg/kg, after 0.5 hrs.
In data set [17] the test system is Rattus norvegicus. The experiment in a line: Ex-vivo P2X7 receptor occupancy in Sprague-Dawley rat brain assessed as inhibition of [3H]A804598 binding at 10 mg/kg, sc after 0.5 hrs by autoradiographic analysis.
A short description of data set [18]: Drug level in brain of Sprague-Dawley rat at 10 mg/kg, sc after 0.5 hrs. As to conditions: read-out: Drug uptake.

pIC50: −log10 of the molar value. ≈ marks a conversion by molar mass, not a printed value.

By solubility is commonly meant the dissolved amount per volume that the medium holds. Low readings indicate a poorly soluble substance, high ones a readily soluble substance. What is called Papp B→A is the apparent permeability from the basolateral to the apical side of a cell layer. By Papp A→B is commonly meant how fast a substance crosses the layer from the apical side. By pIC50 is commonly meant the negative decadic logarithm of the IC50, by convention in mol/L.

Chain of Voltage-gated inwardly rectifying potassium channel KCNH2 (Q12809 whole entry): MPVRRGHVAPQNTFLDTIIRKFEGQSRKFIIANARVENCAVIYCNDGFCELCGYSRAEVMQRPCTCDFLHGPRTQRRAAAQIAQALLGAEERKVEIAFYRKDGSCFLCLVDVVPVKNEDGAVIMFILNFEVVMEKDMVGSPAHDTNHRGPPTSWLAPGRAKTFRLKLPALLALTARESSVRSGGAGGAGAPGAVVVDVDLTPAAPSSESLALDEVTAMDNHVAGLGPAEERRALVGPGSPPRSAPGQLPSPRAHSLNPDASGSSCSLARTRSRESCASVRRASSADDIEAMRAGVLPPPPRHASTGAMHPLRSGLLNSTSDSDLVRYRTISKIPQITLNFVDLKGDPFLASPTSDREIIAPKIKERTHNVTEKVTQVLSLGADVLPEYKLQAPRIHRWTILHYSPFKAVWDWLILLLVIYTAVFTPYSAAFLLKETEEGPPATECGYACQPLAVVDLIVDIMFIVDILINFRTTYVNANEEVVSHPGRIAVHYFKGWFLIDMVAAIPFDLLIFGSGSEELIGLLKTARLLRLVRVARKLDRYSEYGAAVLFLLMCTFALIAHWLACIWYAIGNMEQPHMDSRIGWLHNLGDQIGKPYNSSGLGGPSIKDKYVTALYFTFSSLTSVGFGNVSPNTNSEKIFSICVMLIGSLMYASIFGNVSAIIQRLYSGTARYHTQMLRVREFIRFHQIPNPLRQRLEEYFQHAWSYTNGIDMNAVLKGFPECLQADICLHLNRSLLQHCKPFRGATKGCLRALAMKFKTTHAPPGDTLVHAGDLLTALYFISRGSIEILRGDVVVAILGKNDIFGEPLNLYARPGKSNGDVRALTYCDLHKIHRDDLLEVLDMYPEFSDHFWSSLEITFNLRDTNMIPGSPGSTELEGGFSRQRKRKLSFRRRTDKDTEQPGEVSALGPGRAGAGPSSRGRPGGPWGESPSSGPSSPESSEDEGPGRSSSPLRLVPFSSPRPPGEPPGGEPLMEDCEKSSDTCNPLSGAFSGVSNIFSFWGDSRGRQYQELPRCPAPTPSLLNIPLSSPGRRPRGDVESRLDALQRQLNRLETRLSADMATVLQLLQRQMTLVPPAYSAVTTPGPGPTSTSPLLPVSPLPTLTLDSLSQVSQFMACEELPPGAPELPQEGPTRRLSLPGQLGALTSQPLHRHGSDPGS

Regarding `C[C@@H]1c2nnc(-c3ccccn3)n2CCN1C(=O)c1cccc(Cl)c1Cl`, the figures for the fraction unbound in data set [1], in data set [2] and in data set [7] were 0.11, 0.069 and 0.175, respectively. Further, the solubility in [3] was above 400 µM. Besides, the concentration at 0.5 h in data set [4] was determined as 2520 ng/mL; in data set [13], 5510 ng/mL. Further, in [5], the basolateral-to-apical permeability (Papp B→A) is 52.1 ×10⁻⁶ cm/s. Further, the Papp A→B in data set [6] is 73.4 ×10⁻⁶ cm/s. Further, the concentration at 2 h in data set [8] stood at 942 ng/mL; in data set [9], 2500 ng/mL. For the same compound, the Occ in the data set with Rattus norvegicus [10] worked out at 68%; in the data set on Rattus norvegicus [12], 56%. The pIC50 in [11] is below 5.00.

For the compound `C[C@H]1Cn2c(nnc2-c2cnccn2)CN1C(=O)c1cccc(C(F)(F)F)c1Cl`, the fraction unbound in [2] and in [7] was 0.302 in each case.

Regarding `C[C@H]1Cn2c(nnc2-c2ccccn2)CN1C(=O)c1cccc(Cl)c1Cl`, the fraction unbound in data set [2] is 0.449; in [7], 0.51.

As to `C[C@H]1Cn2c(nnc2-c2ccc(F)cc2)CN1C(=O)c1cccc(Cl)c1Cl`, the results for the fraction unbound in data set [1], in [2] and in [7] were 0.09, 0.078 and 0.115, respectively. Also, the solubility in data set [3] was 158 µM (≈ 64 µg/mL). In addition, the concentration at 0.5 h in [4] was found to be 252 ng/mL; in data set [13], 1560 ng/mL. For the same compound, the Papp B→A in data set [5] was 41.6 ×10⁻⁶ cm/s. For the same compound, the Papp A→B in [6] was 43.3 ×10⁻⁶ cm/s. For the same compound, the results for the concentration at 2 h in data set [8] and in data set [9] were 27 ng/mL and 142 ng/mL, respectively. The Occ was 92% with Rattus norvegicus [10] and 5% in the data set on Rattus norvegicus [12].

As for `COc1ccnc(-c2nnc3n2C[C@H](C)N(C(=O)c2cccc(Cl)c2Cl)C3)c1`, the Occ in the data set on Rattus norvegicus [14] was 71%; in the data set on Rattus norvegicus [17], 78%. For the same compound, the figures for the fraction unbound in data set [2] and in [7] were 0.07 and 0.174, respectively. The concentration in solution in data set [3] (solubility) was 260 µM (≈ 109 µg/mL). Besides, in data set [15], the concentration at 2 h was 374 ng/mL. In addition, the concentration at 0.5 h in data set [16] was determined as 1080 ng/mL; in [18] it was 3880 ng/mL. The compound also had a pIC50 in data set [11] below 5.00.

`C[C@H]1Cn2c(nnc2-c2cc(F)ccn2)CN1C(=O)c1cccc(Cl)c1Cl`: the fraction unbound in [2] is 0.09; in [7] it was 0.254. In [3], the concentration in solution (solubility) came to 350 µM (≈ 142 µg/mL).

Take `C[C@H]1Cn2c(nnc2-c2ccc(F)cc2)CN1C(=O)c1cccc(C(F)(F)F)c1Cl`: the results for the fraction unbound in data set [1], in data set [2] and in [7] were 0.07, 0.078 and 0.131, respectively. For the same compound, the concentration at 0.5 h in [4] amounted to 1460 ng/mL; in data set [13], 6740 ng/mL. The Papp B→A in data set [5] amounted to 53.2 ×10⁻⁶ cm/s. Moreover, the Papp A→B in data set [6] amounted to 37.3 ×10⁻⁶ cm/s. In addition, the concentration at 2 h is 2680 ng/mL in data set [8] and 12600 ng/mL in [9]. Besides, the values for the Occ in the data set on Rattus norvegicus [10] and in the data set on Rattus norvegicus [12] were 89% and 73%, respectively.
